What was measured:
[1] = molecular target: Human norepinephrine transporter (NET) (Homo sapiens, UniProt P23975); test: Binding assay to human norepinephrine transporter (NET), [3H]-Nisoxetin; settings: human NET enriched membranes, 5 nM [3H]-Nisoxetin
Description: Binding Assay to Human Norepinephrine Transporter (NET).
Human norepinephrine transporter (NET) enriched membranes (5 μg) were incubated with 5 nM of radiolabeled [3H]-Nisoxetin in assay buffer containing 50 mM Tris-HCl, 120 mM NaCl, 5 mM KCl, pH 7.4.
NSB (non specific binding) was measured by adding 1 μM. After 60 min incubation at 4° C., binding reaction was terminated by filtering through Multiscreen GF/C (Millipore) presoaked in 0.5% polyethyleneimine in Vacuum Manifold Station, followed by 3 washes with ice-cold filtration buffer containing 50 mM Tris-HCl, 0.9% NaCl, pH 7.4.
Filter plates were dried at 60° C. for 1 hour and 30 μL of scintillation cocktail were added to each well before radioactivity reading.
Readings were performed in a Trilux 1450 Microbeta radioactive counter (Perkin Elmer).

[2] = molecular target: Human α2δ-1 subunit of Cav2.2 calcium channel (Homo sapiens, UniProt P54289); test: Human α2δ-1 subunit of Cav2.2 calcium channel assay, [3H]-Gabapentin binding; settings: human α2δ-1 enriched membranes, 15 nM [3H]-Gabapentin
Sequence of Human α2δ-1 subunit of Cav2.2 calcium channel (P54289 25-1103): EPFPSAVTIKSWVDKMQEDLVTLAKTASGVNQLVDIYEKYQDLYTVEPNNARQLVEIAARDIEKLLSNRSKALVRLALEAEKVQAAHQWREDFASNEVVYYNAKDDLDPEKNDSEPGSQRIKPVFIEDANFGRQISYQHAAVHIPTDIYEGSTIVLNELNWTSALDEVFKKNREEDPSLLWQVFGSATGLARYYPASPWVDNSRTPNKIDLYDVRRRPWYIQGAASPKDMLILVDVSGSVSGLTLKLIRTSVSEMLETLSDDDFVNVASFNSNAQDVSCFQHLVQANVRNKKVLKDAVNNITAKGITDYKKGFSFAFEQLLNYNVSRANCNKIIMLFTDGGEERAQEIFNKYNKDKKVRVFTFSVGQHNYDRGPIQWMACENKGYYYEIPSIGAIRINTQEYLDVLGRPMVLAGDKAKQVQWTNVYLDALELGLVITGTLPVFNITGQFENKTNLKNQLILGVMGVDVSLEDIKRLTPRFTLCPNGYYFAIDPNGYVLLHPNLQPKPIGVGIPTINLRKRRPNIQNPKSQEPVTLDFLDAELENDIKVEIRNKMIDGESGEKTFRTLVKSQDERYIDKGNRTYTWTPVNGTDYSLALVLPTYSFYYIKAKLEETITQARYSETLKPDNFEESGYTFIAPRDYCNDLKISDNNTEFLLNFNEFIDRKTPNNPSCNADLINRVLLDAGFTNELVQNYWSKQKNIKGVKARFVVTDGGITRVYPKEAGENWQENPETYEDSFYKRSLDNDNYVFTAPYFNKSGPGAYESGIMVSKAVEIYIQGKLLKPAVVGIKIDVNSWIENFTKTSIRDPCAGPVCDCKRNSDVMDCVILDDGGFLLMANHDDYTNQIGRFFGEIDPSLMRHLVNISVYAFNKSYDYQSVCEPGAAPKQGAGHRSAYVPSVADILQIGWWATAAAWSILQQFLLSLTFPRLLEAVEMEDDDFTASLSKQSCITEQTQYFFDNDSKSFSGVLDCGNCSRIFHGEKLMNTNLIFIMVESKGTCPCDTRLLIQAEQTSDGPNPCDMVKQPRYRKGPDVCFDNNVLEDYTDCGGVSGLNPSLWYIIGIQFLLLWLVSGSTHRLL
Description: Human α2δ-1 Subunit of Cav2.2 Calcium Channel Assay
Human α2δ-1 enriched membranes (2.5 μg) were incubated with 15 nM of radiolabeled [3H]-Gabapentin in assay buffer containing Hepes-KOH 10 mM, pH 7.4. NSB (non specific binding) was measured by adding 10 μM pregabalin. After 60 min incubation at 27° C., binding reaction was terminated by filtering through Multiscreen GF/C (Millipore) presoaked in 0.5% polyethyleneimine in Vacuum Manifold Station, followed by 3 washes with ice-cold filtration buffer containing 50 mM Tris-HCl, pH 7.4. Filter plates were dried at 60° C. for 1 hour and 30 μL of scintillation cocktail were added to each well before radioactivity reading. Readings were performed in a Trilux 1450 Microbeta radioactive counter (Perkin Elmer).

Sequence of Human norepinephrine transporter (NET) (P23975 whole entry): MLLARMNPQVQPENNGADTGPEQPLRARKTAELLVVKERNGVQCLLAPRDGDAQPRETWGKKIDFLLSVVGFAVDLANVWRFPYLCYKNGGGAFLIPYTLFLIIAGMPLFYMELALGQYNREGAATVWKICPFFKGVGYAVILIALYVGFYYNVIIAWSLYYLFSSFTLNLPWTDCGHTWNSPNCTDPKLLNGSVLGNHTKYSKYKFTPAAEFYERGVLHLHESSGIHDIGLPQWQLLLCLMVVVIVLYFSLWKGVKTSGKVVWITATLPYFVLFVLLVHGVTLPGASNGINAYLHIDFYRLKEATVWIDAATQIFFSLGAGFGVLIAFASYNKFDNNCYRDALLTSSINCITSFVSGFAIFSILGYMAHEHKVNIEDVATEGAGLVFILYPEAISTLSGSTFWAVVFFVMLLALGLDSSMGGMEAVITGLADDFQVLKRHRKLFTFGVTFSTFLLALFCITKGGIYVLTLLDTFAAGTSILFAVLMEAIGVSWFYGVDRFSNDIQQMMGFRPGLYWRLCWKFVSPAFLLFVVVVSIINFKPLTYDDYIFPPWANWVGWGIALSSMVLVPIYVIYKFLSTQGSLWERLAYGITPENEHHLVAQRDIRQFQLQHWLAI

Row | SMILES | Ki [1] [nM] | Ki [2] [nM]
1 | CNCCC(Oc1cccc(-c2ccncc2C)c1)c1cccs1 (centres unmarked) [Example 24, N-methyl-3-(3-(3-methylpyridin-4-yl)phenoxy)-3-(thiophen-2-yl)propan-1-amine] | 500 to 1000 | 500 to 5000
2 | CNCCC(Oc1cccc(-c2ccnc(C)n2)c1)c1ccccc1 (centres unmarked) [Example 2, N-methyl-3-(3-(2-methylpyrimidin-4-yl)phenoxy)-3-phenylpropan-1-amine] | 100 to 500 | 500 to 5000
3 | CNCC[C@H](Oc1cccc(-c2ccnc(SC)n2)c1)c1ccccc1 [Example 5, (S)—N-methyl-3-(3-(2-(methylthio)pyrimidin-4-yl)phenoxy)-3-phenylpropan-1-amine] | < 100 | 500 to 5000
4 | CNCC[C@H](Oc1cccc(-c2ccnc(N(C)C)n2)c1)c1ccccc1 [Example 35, (S)—N,N-dimethyl-4-(3-(3-(methylamino)-1-phenylpropoxy)phenyl)pyrimidin-2-amine] | < 100 | ≥ 5000
5 | CNCCC(Oc1cccc(-c2ccc(C)nn2)c1)c1ccccc1 (centres unmarked) [Example 3, N-methyl-3-(3-(6-methylpyridazin-3-yl)phenoxy)-3-phenylpropan-1-amine] | 500 to 1000 | ≥ 5000
6 | CNCCNc1nccc(-c2cccc(O[C@@H](CCNC)c3ccccc3)c2)n1 [Example 32, (S)—N1-methyl-N2-(4-(3-(3-(methylamino)-1-phenylpropoxy)phenyl)pyrimidin-2-yl)ethane-1,2-diamine] | ≥ 1000 | 500 to 5000
7 | CNCCC(Oc1cccc(-c2cc(C)nc(C)c2)c1)c1cccs1 (centres unmarked) [Example 26, 3-(3-(2,6-dimethylpyridin-4-yl)phenoxy)-N-methyl-3-(thiophen-2-yl)propan-1-amine] | 100 to 500 | 500 to 5000
8 | CNCC[C@H](Oc1cccc(-c2ccnc(NC)n2)c1)c1ccccc1 [Example 30, (S)—N-methyl-4-(3-(3-(methylamino)-1-phenylpropoxy)phenyl)pyrimidin-2-amine] | < 100 | ≥ 5000
9 | CNCCC(Oc1cccc(-c2ccncn2)c1)c1ccccc1 (centres unmarked) [Example 4, N-methyl-3-phenyl-3-(3-(pyrimidin-4-yl)phenoxy)propan-1-amine] | 500 to 1000 | 500 to 5000
10 | CNCC[C@H](Oc1cccc(-c2ccnc(N3CCN(C)CC3)n2)c1)c1ccccc1 [Example 31, (S)—N-methyl-3-(3-(2-(4-methylpiperazin-1-yl)pyrimidin-4-yl)phenoxy)-3-phenylpropan-1-amine] | ≥ 1000 | 500 to 5000
11 | CNCCC(Oc1cccc(-c2ccnc(C)c2)c1)c1cccs1 (centres unmarked) [Example 19, N-methyl-3-(3-(2-methylpyridin-4-yl)phenoxy)-3-(thiophen-2-yl)propan-1-amine] | 100 to 500 | < 500
12 | CNCCC(Oc1cccc(-c2cnc(C)nc2)c1)c1cccs1 (centres unmarked) [Example 23, N-methyl-3-(3-(2-methylpyrimidin-5-yl)phenoxy)-3-(thiophen-2-yl)propan-1-amine] | ≥ 1000 | 500 to 5000
13 | CNCC[C@@H](Oc1cccc(-c2ccnc(C)n2)c1)c1ccccc1 [Example 7, (R)—N-methyl-3-(3-(2-methylpyrimidin-4-yl)phenoxy)-3-phenylpropan-1-amine] | 500 to 1000 | 500 to 5000
14 | CNCC[C@@H](Oc1cccc(-c2ccnc(SC)n2)c1)c1ccccc1 [Example 8, (R)—N-methyl-3-(3-(2-(methylthio)pyrimidin-4-yl)phenoxy)-3-phenylpropan-1-amine] | < 100 | 500 to 5000
15 | CNCC[C@H](Oc1cccc(-c2ccnc(C)n2)c1)c1ccccc1 [Example 6, (S)—N-methyl-3-(3-(2-methylpyrimidin-4-yl)phenoxy)-3-phenylpropan-1-amine] | 100 to 500 | 500 to 5000
16 | CNCCC(Oc1cccc(-c2ccnc(OC)n2)c1)c1ccccc1 (centres unmarked) [Example 1, 3-(3-(2-Methoxypyrimidin-4-yl)phenoxy)-N-methyl-3-phenylpropan-1-amine] | < 100 | 500 to 5000
17 | CCNc1nccc(-c2cccc(O[C@@H](CCNC)c3ccccc3)c2)n1 [Example 29, (S)—N-ethyl-4-(3-(3-(methylamino)-1-phenylpropoxy)phenyl)pyrimidin-2-amine] | 100 to 500 | 500 to 5000
18 | CNCCC(Oc1cccc(-c2ccnc(C(F)(F)F)c2)c1)c1cccs1 (centres unmarked) [Example 22, N-methyl-3-(thiophen-2-yl)-3-(3-(2-(trifluoromethyl)pyridin-4-yl)phenoxy)propan-1-amine] | 100 to 500 | 500 to 5000
19 | CNCC[C@@H](Oc1cccc(-c2ccnc(N[C@@H]3CCNC3)n2)c1)c1ccccc1 [Example 33, 4-(3-((R)-3-(methylamino)-1-phenylpropoxy)phenyl)-N—((R)-pyrrolidin-3-yl)pyrimidin-2-amine] | ≥ 1000 | 500 to 5000
20 | CNCCC(Oc1cccc(-c2cnc(OC)nc2)c1)c1cccs1 (centres unmarked) [Example 18, 3-(3-(2-methoxypyrimidin-5-yl)phenoxy)-N-methyl-3-(thiophen-2-yl)propan-1-amine] | ≥ 1000 | 500 to 5000
21 | CNCCC(Oc1cccc(-c2ccncc2)c1)c1cccs1 (centres unmarked) [Example 27, N-methyl-3-(3-(pyridin-4-yl)phenoxy)-3-(thiophen-2-yl)propan-1-amine] | 100 to 500 | 500 to 5000
22 | CNCC[C@H](Oc1cccc(-c2ccnc(N[C@@H]3CCNC3)n2)c1)c1ccccc1 [Example 36, 4-(3-((S)-3-(methylamino)-1-phenylpropoxy)phenyl)-N—((R)-pyrrolidin-3-yl)pyrimidin-2-amine] | 500 to 1000 | 500 to 5000
23 | CNCC[C@H](Oc1cccc(-c2ccnc(N)n2)c1)c1ccccc1 [Example 10, (S)-4-(3-(3-(methylamino)-1-phenylpropoxy)phenyl)pyrimidin-2-amine] | 100 to 500 | 500 to 5000
24 | CNCC[C@H](Oc1cccc(-c2ccnc(N3CCNCC3)n2)c1)c1ccccc1 [Example 28, (S)—N-Methyl-3-phenyl-3-(3-(2-(piperazin-1-yl)pyrimidin-4-yl)phenoxy)propan-1-amine] | ≥ 1000 | 500 to 5000
25 | CNCC[C@@H](Oc1cccc(-c2ccnc(N[C@H]3CCNC3)n2)c1)c1ccccc1 [Example 34, 4-(3-((R)-3-(methylamino)-1-phenylpropoxy)phenyl)-N—((S)-pyrrolidin-3-yl)pyrimidin-2-amine] | 500 to 1000 | 500 to 5000

From patent publication US20200123115A1, “COMPOUNDS HAVING MULTIMODAL ACTIVITY AGAINST PAIN” (ESTEVE PHARMACEUTICALS, S.A., priority 2017, published 2020)
